# In US20030119733A1, “Compositions and methods for inhibiting hepatocyte invasion by malarial sporozoites” (New York University, priority 1992, published 2003):
# Where “and” joins values, the source holds several entries; their conditions need not be identical. Identical values can stand only once. Like-named read-outs stand apart in the source and are kept apart here. Where no end group is shown, it is not given here.
# How the values were obtained:
# [1] = system: Vivax-2 binding to sulfatide; assay: Inhibition of binding of Vivax-2 to sulfatide; set-up: species or system P. vivax
# Procedure: (§1) Solid phase binding assays: Thirty μl of lipids or steroids dissolved in methanol (20-250 μg/ml) were dried into wells of microassay plates (Cat.# 3911—Falcon—Oxnard, Calif.). The plates were then blocked with 1% BSA/PBS pH 7.4 (BSA/PBS) for 30 minutes. Wells were incubated with recombinant protein (or with parasite extract) in PBS/BSA for 1 hour, washed 3 times with BSA/PBS, incubated for 1 hour with monoclonal antibodies 2F2 or 2A10 in BSA/PBS, washed 3 times, and then incubated with (10^5 cpm/well) ^125I protein A (Amersham Corp., Arlington Hts., Ill.). In the case of the P. berghei CS protein, wells were incubated with ^125I labelled mAb 3D11. Wells were washed again and the bound radioactive protein was counted in an LKB gamma-counter (model #1260, Pharmacia, Inc., Gaithersburg, Md.). For inhibition assays, the recombinant proteins were mixed with dilutions of the various polymers in BSA/PBS, the mixture was loaded into the wells of the microtiter plates, and the binding assay performed as above. See also, Roberts, et al. J. Biol. Chem. 260:9405-9411, 1985.
# [2] = system: binding of CSFZ(Cys) to HepG2 cells; assay: Inhibition of CS binding to HepG2 cells by glycosaminoglycans; set-up: species or system human; conditions: preincubated with 5 μg/ml CSFZ(Cys); FIG. 9
# Procedure: 10^5 HepG2 cells were deposited in 96-well Removawell tissue culture plates and allowed to grow overnight in MEM (Gibco) containing 10% FCS, 1 mM L-glutamine (Gibco), 3 mg/ml glucose (Sigma) and 1× non-essential amino acids (Gibco). The HepG2 cells were fixed with 4% paraformaldehyde in TBS (50 mM Tris-HCl, pH 7.5, 137 mM NaCl, 2 mM KCl), were washed 3 times with TBS, and were stored at 4° C. in BSA/TBS until use. CSFZ(Cys) at 5 μg/ml was incubated with increasing amounts of the presumed inhibitors at 37° C. for 15 min. Fifty μl of these mixtures were added to the cells, incubated for 1 hr at 37° C., washed 3× with TBS/0.05% Tween and then sequentially incubated with 50 μl of mAb 2A10 at a concentration of 10 μg/ml in TBS/BSA buffer for 30 min at 37° C., and 1:5000 dilution of goat anti-mouse IgG conjugated to alkaline phosphatase (Boehringer) for 30 minutes. […] After 15 minutes, the fluorescence was measured in a Fluoroskan II plate reader (ICN).
# Proteoglycans were preincubated with 5 μg/ml of CSFZ(Cys) and then were added to paraformaldehyde-fixed HepG2 cells. […] Each point represents the mean of triplicates. Percent inhibition was calculated by comparison to CSFZ(Cys) preincubated in medium alone.
# [3] = system: Vivax-2 binding to cholesterol-sulfate; assay: Inhibition of binding of Vivax-2 to cholesterol-sulfate; set-up: species or system P. vivax
# Procedure: as §1
# P. berghei sporozoites [4] = assay: Infection assay of HepG2 cells with polymers; assay type: cell-based; conditions: for effect on sporozoite invasion: present during invasion, 5-50 μg/ml; for invasion of hepatocytes by sporozoites in vitro: no conditions given
# Procedure: Infection assay: Semiconfluent monolayers of HepG2 cells were grown in 10% FCS/MEM on 8 chamber slides (#4808 Lab-tek -Naperville, Ill.) for 24 hours prior to each experiment. Sporozoites were pre-incubated in media alone or with the various polymers for 15 minutes at 4° C. 5×10^4 sporozoites, in a volume of 10 μl, were added per chamber. After 4 hours of incubation at 37° C., the medium containing the sporozoites was gently aspirated, and 0.5 ml MEM/10% FCS was added. Fresh medium was added at 18 hours and 28 hours, and then cells were fixed with methanol containing 0.3% H2O2 at 48 hours. After fixation, the wells were blocked with 10% FCS/PBS and were incubated with 10 μg/ml of mAb 2E6. Binding of the mAb was detected with a polyclonal goat anti-mouse Ig conjugated to horseradish peroxidase. […] The parasites in each well are counted under a 40× light microscope objective.
# The cells were fixed and stained with mAb 2E6, followed by goat-anti-mouse linked to horseradish peroxidase. Numbers represent schizonts counted/20 fields under 40× magnification in a light microscope.
# P. berghei sporozoites [5] = assay type: cell-based; conditions: for Number of EEF (Mean ± SD): schizonts per 20 fields
# Procedure: Assays were conducted according to the methods described by Hollingdale, M. R. et al.. Science 213:1021-1022, 1981. and Sinden, R. E., WHO Bulletin MOS (Suppl.) 68:115-125, 1990. HepG2 cells were plated in FCS-MEM at a density of 0.5×10^6 cells/ml in 8-chamber slides (4808 Lab-tek, Naperville, Ill.) 24 hr. before each experiment. […] For antibody inhibition experiments, sporozoites were preincubated in FCS-MEM alone, or FCS-MEM containing anti-Region II IgG, or with preimmune sera IgG for 30 min. at 4° C. Sporozoites (5×10^4), in a volume of 100 μl, were added to each well. The medium was replenished after 2 hr. and changed after 18 and 28 hr. Each point was performed in quadruplicate. In experiments designed to evaluate the toxicity of the peptides and antisera, sporozoites were first incubated with the HepG2 cells for 2 hr in FCS-MEM. FCS-MEM containing the peptide at a concentration of 250 μg/ml (or the IgGs at a concentration of 700 μg/ml) was then added to the cultures, and incubation proceeded for two additional hours. As above, FCS-MEM was changed after 18 and 28 hr. All cultures were fixed with cold methanol containing 0.3% H2O2 after 48 hr. […] The number of exoerythrocytic forms in 20 fields was counted in a double-blind fashion under a 20× light microscope objective.
# The number of exoerythrocytic forms (“EEF”) of the parasite that developed in the HepG2 cells were counted two days later. […] In Table 2, “Number of EEF” represents the average number of schizonts counted per 20 fields under 20-times magnification of a light microscope in quadruplicate wells; P values were calculated by one-way analysis of variances corrected by the Bonferroni method using the commercially available computer program GraphPAD Instat, version 1.14, copyright 1990. […]
# [6] = system: binding of CS27IVC to liver sections; assay: Peptide inhibition of CS27IVC binding to frozen liver sections; set-up: species or system rat; conditions: peptide preincubation, up to 500 μg/ml
# Procedure: The procedure was carried out essentially as described by Dukor P. et al., Proc. Natl. Acad. Sci. USA 67:991-997, 1970 and Imai Y. et al., J. Cell. Biol. 111:1225-1232, 1990. Rats were euthanized with CO2. Small pieces of the liver, spleen, heart, brain and lung were removed, snap frozen in liquid nitrogen, embedded in Tissue Tek O.C.T. (Miles, Inc., Naperville, Ill.), and cut into 5 μm sections. Sections were dried for 30 min., fixed for 10 min. in 4% paraformaldehyde, rinsed three times with phosphate-buffered saline (PBS), and either used immediately or stored at 4° C. in 1% BSA, 0.5% Tween, PBS (BSA/TPBS). After blocking with 100 mM glycine (pH 7.2) and with BSA/TPBS, the sections were sequentially incubated at 37° C. with recombinant proteins for 1 hr, 10 μg/ml MAb 2A10 for 45 min., and rat anti-mouse immunoglobulin conjugated to fluorescein isothiocyanate (Boehringer Mannheim, Indianapolis, Ind.) for 45 min. The slides were counterstained for 10 min. with 0.3% Evans blue, rinsed extensively in PBS, and finally observed under a fluorescence microscope. For peptide inhibition experiments, the sections were first incubated with the peptide at various concentrations in BSA/TPBS for 1 hour at 37° C., washed six times with BSA/TPBS, and then stained with 2.5 μg/ml CS recombinant protein as described above. In a few experiments, the tissues were fixed for 10 min. with methanol, acetone, or 4% paraformaldehyde containing 0.5% glutaraldehyde.
# [7] = system: heparan sulfate proteoglycans (HSPG); assay: CS/proteoglycan co-immunoprecipitation; assay type: binding, human; conditions: for effect on co-immunoprecipitation of the CS receptor by CSFZ(Cys): 100 μg/ml added to 35SO4-labeled HepG2 cell extracts; for effect on co-immunoprecipitation of purified proteoglycans by CSFZ(Cys): purified trypsin-released HepG2 proteoglycan, FIG. 17
# Procedure: All extracts and supernatants were first precleared with normal rabbit serum and Staph A cells. Then 32 μg/ml of CSFZ(Cys) or 64 μg/ml of CS27IVC, Falc-2 or Falc-1 were added for 30 minutes, followed by 10.8 μg/ml mAb 2A10 for 30 minutes, and 1% Staph A cells (final concentrations). The suspensions were shaken for 1 to 5 hours at 4° C. The Staph A cells were washed 3 times with the lysis buffer A, 2 times with lysis buffer B (10 mM Tris-HCl, pH 7.2, containing 100 mM NaCl and 0.5% NP40), 1 time with 50 mM Tris-HCl, ph 7.2, and were processed in this buffer for electrophoresis under reducing and non-reducing conditions.
# Extracts of cells metabolically labeled with ^35SO4 were incubated for 30 minutes at 4° C. with 32 μg/ml of recombinant CSFZ(Cys) or 64 μg/ml Falc-1, and were immunoprecipitated with mAb 2A10 and Staph A cells. […] Immunoprecipitation with Falc-1 was negative. The SDS-PAGE patterns of the total lysate of HepG2 cells, and of the molecules co-immunoprecipitated with CSFZ(Cys) resembled the corresponding liver SDS-PAGE patterns. In kidney lysates, CSFZ(Cys) selectively immunoprecipitated a band of slightly lower molecular weight than the total kidney sulfated molecules.
# Sub-confluent HepG2 cells were incubated with various concentrations of trypsin for 5 minutes at 4° C. […] Independently of the trypsin concentration, about 80% of the released HSPG was co-immunoprecipitated by 32 μg/ml CSFZ(Cys) and 10.8 μg/ml mAb 2A10. Under the same conditions, Falc-1 was negative.
# ^35SO4-labeled trypsin-released proteoglycan (total supernatant) was precipitated by CSFZ(Cys) (32 μg/ml), Falc-2 (64 μg/ml), CS27IVC (64 μg/ml) and Falc-1 (64 μg/ml). The labeled molecules were incubated with CSFZ(Cys), CS27IVC, and Falc-2 at equivalent concentrations of Region II+, and co-immunoprecipitated with the mAb 2A10. CSFZ(Cys), lacking most of the repeat region, precipitated up to 86% of the total sulfate-labeled proteoglycans (see FIG. 14), while CS27IVC and Falc-2 precipitated only 18% and 6% of the counts, respectively. Falc-1, which lacks Region II+, was negative.
# Subconfluent sulfate-labeled HepG2 cells were incubated with 20 μg/ml trypsin for 5 minutes at 4° C., and the supernatants were loaded onto an anion exchange chromatography Pharmacia mono-Q column. These were eluted with a 0 to 2 M NaCl gradient in the presence of 7 M urea. […] Protein was not detectable in the labeled peaks. One ml fractions were collected and counted.
# [8] = biological target: T1, P.berghei CS protein binding to sulfatide (Plasmodium berghei, UniProt P06915); assay: Inhibition of binding of P.berghei CS protein to sulfatide
# T1 construct: as well as the native P. berghei CS protein; endogenous in cells; host or cells: P. berghei sporozoites (extract, 35,000 sporozoite equivalents/well)
# Procedure: as §1
# [9] = biological target: hepatocyte plasma membrane receptor for the circumsporozoite protein on human hepatocytes and HepG2; assay: competition: fixed HepG2 cells preincubated with peptide, washed, then CSFZ (Cys) 2.5 µg/ml (competitor); cell ELISA
# [10] = peptide 500 μg/ml present during invasion
molecule,measurement,setting,value
dextran,% INHIBITION,[1]; inhibitor 1 mg/ml,0%
same,inhibition of CS binding to HepG2 cells,[2],not
same,% INHIBITION,[3]; inhibitor 10 mg/ml,0%
same,effect on sporozoite invasion,P. berghei sporozoites [4],no effect
PGSANKPKDELDYANIEKK [Pf4],Number of EEF (Mean ± SD),P. berghei sporozoites [5]; peptide 250 μg/ml present during invasion,122.5 ± 13.4 and 123.7 ± 20.1 and 105.0 ± 12.5
same,Percentage of Inhibition,P. berghei sporozoites [5]; [10],0.0%
same,Number of EEF (Mean ± SD),P. berghei sporozoites [5]; [10],375.2 ± 52
same,inhibition of the binding of CS27IVC to liver sections,[6],failed to inhibit
chondroitin sulfate,inhibition of CS binding to HepG2 cells,[2],not
same,effect on co-immunoprecipitation of the CS receptor by CSFZ(Cys),[7],no effect
same,effect on co-immunoprecipitation of purified proteoglycans by CSFZ(Cys),[7],not
dextran-sulfate,% INHIBITION,[1]; inhibitor 1 μg/ml,19%
same,% INHIBITION,[1]; inhibitor 10 μg/ml,70.2%
same,inhibition of CS binding to HepG2 cells,[2],inhibited
same,% INHIBITION,[3]; inhibitor 1 μg/ml,12.2%
same,% INHIBITION,[3]; inhibitor 10 μg/ml,21.1%
same,% INHIBITION,[3]; inhibitor 100 μg/ml,25.6%
same,% INHIBITION,[3]; inhibitor 1 mg/ml,33%
same,% INHIBITION,[3]; inhibitor 10 mg/ml,40.5%
same,% INHIBITION,"[3]; inhibitor 10 mg/ml, listed as dextran-sulfate",less than 50%
same,% INHIBITION,[8]; inhibitor 1 μg/ml,31.2%
same,% INHIBITION,[8]; inhibitor 10 μg/ml,63%
same,% INHIBITION,[8]; inhibitor 100 μg/ml,79%
same,development of the liver stages,"P. berghei sporozoites [4]; added after 4 hours of contact, after invasion",not affected
same,invasion of hepatocytes by sporozoites in vitro,P. berghei sporozoites [4],inhibited
same,effect on sporozoite invasion,P. berghei sporozoites [4],inhibited invasion in a dose-dependent fashion
heparan-sulfate,effect on binding to sulfatide,[1]; 1 mg/ml,no effect
same,% INHIBITION,[1]; inhibitor 1 mg/ml,0%
same,inhibition of CS binding to HepG2 cells,[2],inhibited
same,% INHIBITION,[3]; inhibitor 10 mg/ml,0%
same,effect on sporozoite invasion,P. berghei sporozoites [4],no effect
heparin,% INHIBITION,[1]; inhibitor 100 μg/ml,0%
same,inhibition of CS binding to HepG2 cells,[2],inhibited
same,% INHIBITION,[3]; inhibitor 1 mg/ml,0%
same,% INHIBITION,[3]; inhibitor 10 mg/ml,31.2%
same,effect on co-immunoprecipitation of the CS receptor by CSFZ(Cys),[7],prevented
same,effect on co-immunoprecipitation of purified proteoglycans by CSFZ(Cys),[7],inhibited co-immunoprecipitation
same,invasion of hepatocytes by sporozoites in vitro,P. berghei sporozoites [4],inhibited
fucoidan,inhibition of CS binding to HepG2 cells,[2],inhibited
same,invasion of hepatocytes by sporozoites in vitro,P. berghei sporozoites [4],inhibited
CGNGIQVRIKPGSANKPKDE [Pf2],IC50,[9],75 µg/mL
